Data published in ChEMBL document CHEMBL5038591, “Identification of a Novel TAR RNA-Binding Protein 2 Modulator with Potential Therapeutic Activity against Hepatocellular Carcinoma” (J Med Chem, 2021).
pIC50: −log10 of the molar value. The source made the active and inactive calls. The calls are words filed in the database; no cut-off is given here.

What was measured:
SK-HEP1 [1] = experiment: Antiproliferative activity against human SK-HEP1 cells incubated for 24 hrs by alamar blue assay; assay type: functional, cell-based; settings: SK-HEP1, 24 h
[2] = Antiproliferative activity against human QSG7701 cells incubated for 24 hrs by alamar blue assay; assay type: functional, cell-based; settings: QSG7701, 24 h
HeLa [3] = experiment: Antiproliferative activity against human HeLa cells assessed as increase in miR-21 biogenesis level measured after 24 hrs by luciferase assay; assay type: functional, cell-based
SK-HEP1 [4] = experiment: Antiproliferative activity against human SK-HEP1 cells assessed as increase in miR-106b-5p level at 20 uM by qRT-PCR analysis; assay type: functional, cell-based
SK-HEP1 [5] = experiment: Antiproliferative activity against human SK-HEP1 cells assessed as increase in miR-21-5p level at 20 uM by qRT-PCR analysis; assay type: functional, cell-based
SK-HEP1 [6] = experiment: Antiproliferative activity against human SK-HEP1 cells assessed as increase in miR-26a-5p level at 20 uM by qRT-PCR analysis; assay type: functional, cell-based
SK-HEP1 [7] = experiment: Antiproliferative activity against human SK-HEP1 cells assessed as increase in miR-22-5p level at 20 uM by qRT-PCR analysis; assay type: functional, cell-based
SK-HEP1 [8] = experiment: Antiproliferative activity against human SK-HEP1 cells assessed as decrease in miR135a-5p level at 20 uM by qRT-PCR analysis; assay type: functional, cell-based
SK-HEP1 [9] = experiment: Antiproliferative activity against human SK-HEP1 cells assessed as decrease in miR-30a-5p level at 20 uM by qRT-PCR analysis; assay type: functional, cell-based
MHCC97 [10] = experiment: Antitumor activity in human MHCC97 cells xenografted in SCID mouse assessed as suppression of tumor growth at 20 mg/kg, ip administered once every 3 day for 30 days by bioluminescence analysis; assay type: functional, organism-based; settings: time 30.0 day
MHCC97 [11] = experiment: Antimetastatic activity against human MHCC97 cells xenografted in SCID mouse assessed as decrease in liver metastasis at 20 mg/kg, ip administered once every 3 days and measured after 10 days; assay type: functional, organism-based; settings: time 10.0 day
MHCC97 [12] = experiment: Antitumor activity in human MHCC97 cells xenografted in SCID mouse assessed as reduction in infiltration of inflammatory cells in left middle lobe of liver at 20 mg/kg, ip measured after 30 days by H and E staining based immunohistochemical analysis; assay type: functional, organism-based; settings: time 30.0 day
MHCC97 [13] = experiment: Antitumor activity against human MHCC97 cells xenografted in SCID mouse assessed as decrease in tumor size at 20 mg/kg, ip administered once every 3 days and measured after 10 days; assay type: functional, organism-based; settings: time 10.0 day
MHCC97 [14] = experiment: Antimetastatic activity against human MHCC97 cells xenografted in SCID mouse assessed as decrease in liver metastasis at 40 mg/kg, ip administered once every 3 days and measured after 10 days; assay type: functional, organism-based; settings: time 10.0 day
[15] = Toxicity in SCID mouse xenografted with human MHCC97 cells assessed as increase in body weight at 40 mg/kg, ip administered once every 3 day for 30 days; assay type: organism-based; settings: in vivo, 720 h, time 30 day
SK-HEP1 [16] = experiment: Antiproliferative activity against human SK-HEP1 cells at 20 uM measured by crystal violet dye based colony formation assay; assay type: functional, cell-based
SK-HEP1 [17] = experiment: Inhibition of cell migration in human SK-HEP1 cells assessed as reduction in cell migration at 20 uM measured after 12 hrs using crystal violet staining inverted microscope based transwell assay; assay type: functional
Homo sapiens = species: Homo sapiens; experiment: Binding affinity to PIWIL3 (unknown origin) at 30 uM incubated for 2 hrs by pull down assay
[18] = target: DNA topoisomerase 2-beta (Homo sapiens) (UniProt Q02880); experiment: Binding affinity to TOP2B (unknown origin) at 30 uM incubated for 2 hrs by pull down assay
SK-HEP1 [19] = experiment: Antiproliferative activity against human SK-HEP1 cells at 20 uM incubated for 24 hrs by alamar blue assay; assay type: functional, cell-based
MHCC97 [20] = experiment: Antiproliferative activity against human MHCC97 cells at 20 uM incubated for 24 hrs by alamar blue assay; assay type: functional, cell-based
HepG2 = experiment: Antiproliferative activity against human HepG2 cells at 20 uM incubated for 24 hrs by alamar blue assay; assay type: functional, cell-based
Huh-7 = experiment: Antiproliferative activity against human Huh-7 cells at 20 uM incubated for 24 hrs by alamar blue assay; assay type: functional, cell-based
HeLa [21] = experiment: Antiproliferative activity against human HeLa cells at 20 uM incubated for 24 hrs by alamar blue assay; assay type: functional, cell-based

Chain of DNA topoisomerase 2-beta (Homo sapiens) (Q02880 whole entry): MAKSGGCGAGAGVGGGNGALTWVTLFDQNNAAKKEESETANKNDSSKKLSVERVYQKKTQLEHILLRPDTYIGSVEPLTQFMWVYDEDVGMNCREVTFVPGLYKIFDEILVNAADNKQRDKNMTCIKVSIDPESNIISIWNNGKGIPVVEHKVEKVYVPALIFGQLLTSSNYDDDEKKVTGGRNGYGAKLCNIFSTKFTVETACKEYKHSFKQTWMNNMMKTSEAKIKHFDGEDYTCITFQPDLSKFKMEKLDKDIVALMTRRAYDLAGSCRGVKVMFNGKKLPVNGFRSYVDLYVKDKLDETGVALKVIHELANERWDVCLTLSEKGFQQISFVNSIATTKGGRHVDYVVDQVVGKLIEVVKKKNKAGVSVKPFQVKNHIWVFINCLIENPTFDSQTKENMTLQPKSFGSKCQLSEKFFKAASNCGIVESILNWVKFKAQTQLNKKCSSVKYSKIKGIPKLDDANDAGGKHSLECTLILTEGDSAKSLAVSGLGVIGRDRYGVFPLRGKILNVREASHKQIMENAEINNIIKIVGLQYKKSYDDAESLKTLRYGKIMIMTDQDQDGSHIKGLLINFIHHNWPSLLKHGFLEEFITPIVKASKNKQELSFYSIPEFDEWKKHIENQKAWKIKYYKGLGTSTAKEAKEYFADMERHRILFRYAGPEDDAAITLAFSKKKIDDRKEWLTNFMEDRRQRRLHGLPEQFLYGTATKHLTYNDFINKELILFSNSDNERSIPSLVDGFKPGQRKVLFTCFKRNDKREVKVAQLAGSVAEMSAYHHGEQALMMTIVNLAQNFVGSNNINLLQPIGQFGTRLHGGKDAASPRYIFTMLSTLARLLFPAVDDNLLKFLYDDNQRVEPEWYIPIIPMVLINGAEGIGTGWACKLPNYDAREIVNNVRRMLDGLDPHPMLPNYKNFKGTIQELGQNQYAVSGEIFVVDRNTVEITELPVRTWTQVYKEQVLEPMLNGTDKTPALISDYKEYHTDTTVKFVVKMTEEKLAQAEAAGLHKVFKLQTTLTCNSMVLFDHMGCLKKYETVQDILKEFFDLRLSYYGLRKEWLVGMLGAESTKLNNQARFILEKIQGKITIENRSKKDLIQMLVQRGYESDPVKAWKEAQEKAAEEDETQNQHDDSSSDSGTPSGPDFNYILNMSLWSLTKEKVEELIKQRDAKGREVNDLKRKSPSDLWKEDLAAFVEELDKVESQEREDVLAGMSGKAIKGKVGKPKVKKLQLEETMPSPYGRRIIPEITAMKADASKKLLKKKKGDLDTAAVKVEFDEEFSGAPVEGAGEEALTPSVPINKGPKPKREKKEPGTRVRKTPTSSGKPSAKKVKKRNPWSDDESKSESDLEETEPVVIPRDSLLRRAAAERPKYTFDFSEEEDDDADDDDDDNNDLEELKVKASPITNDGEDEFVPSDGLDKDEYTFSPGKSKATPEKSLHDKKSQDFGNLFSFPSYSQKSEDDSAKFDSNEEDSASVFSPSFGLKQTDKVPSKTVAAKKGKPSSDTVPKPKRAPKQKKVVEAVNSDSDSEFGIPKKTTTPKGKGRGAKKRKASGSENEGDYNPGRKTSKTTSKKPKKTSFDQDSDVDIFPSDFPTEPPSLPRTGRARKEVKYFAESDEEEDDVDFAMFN

| Compound | pIC50 (SK-HEP1 [1]) | pIC50 [2] | further results |
| --- | --- | --- | --- |
| COC(=O)c1cc2c(c(OC)c1-c1ccc(N(C)S(=O)(=O)c3ccccc3)cc1)OCO2 | 4.57 | 4.21 | pIC50 (HeLa [3]): 4.71 |
| COC(=O)c1cc2c(c(OC)c1-c1ccc(N(C)S(=O)(=O)c3ccc(F)cc3)cc1)OCO2 | 4.50 | 4.17 |  |
| COC(=O)c1cc2c(c(OC)c1-c1ccc(N(C)S(=O)(=O)c3ccc([N+](=O)[O-])cc3)cc1)OCO2 | 4.47 | 4.16 |  |
| CCn1cc(C(=O)O)c(=O)c2cc(F)c(N3CCNCC3)nc21 [ENOXACIN] | 4.60 | 4.14 | pIC50 (HeLa [3]): 4.59; Activity (SK-HEP1 [4]): Active; Activity (SK-HEP1 [5]): Active; Activity (SK-HEP1 [6]): Active; Activity (SK-HEP1 [7]): Active; Activity (SK-HEP1 [8]): inactive; Activity (SK-HEP1 [9]): inactive; Activity (MHCC97 [10]): Active; Activity (MHCC97 [11]): inactive; Activity (MHCC97 [12]): Active; Activity (MHCC97 [13]): Active |
| CNc1ccc(-c2c(C(=O)OC)cc3c(c2OC)OCO3)cc1Cl | 4.64 | 4.30 |  |
| COc1c2c(cc(C(=O)NCc3ccccc3)c1-c1ccc(N(C)C)cc1)OCO2 | 4.63 | 4.25 | pIC50 (HeLa [3]): 4.66 |
| CNC(=O)c1cc(Oc2ccc(NC(=O)Nc3ccc(Cl)c(C(F)(F)F)c3)cc2)ccn1 [SORAFENIB] |  |  | Activity (MHCC97 [10]): Active; Activity (MHCC97 [14]): Active; Activity [15]: Toxic; Activity (MHCC97 [12]): Active; Activity (MHCC97 [13]): Active |
| COC(=O)c1cc2c(c(OC)c1-c1ccc(N(C)C(=O)CCCCCNC(=O)CCCC[C@@H]3SC[C@@H]4NC(=O)N[C@@H]43)cc1)OCO2 |  |  | Activity (SK-HEP1 [16]): Active; inhibition (SK-HEP1 [17]): Active; Activity (Homo sapiens): inactive; Activity [18]: inactive |
| COc1c2c(cc(C(=O)Nc3ccccc3)c1-c1ccc(N(C)C)cc1)OCO2 | 4.42 | 4.23 |  |
| CCN(CC)CCNC(=O)c1cc2c(c(OC)c1-c1ccc(N(C)C)cc1)OCO2 | < 4.00 | < 4.00 |  |
| COC(=O)c1cc2c(c(OC)c1-c1ccc(N(C)S(=O)(=O)c3ccc(Br)cc3)cc1)OCO2 | 4.54 | 4.21 |  |
| COc1c2c(cc(C(=O)Nc3ccccc3I)c1-c1ccc(N(C)C)cc1)OCO2 | 4.45 | 4.24 |  |
| COc1cccc(NC(=O)c2cc3c(c(OC)c2-c2ccc(N(C)C)cc2)OCO3)c1 | 4.50 | 4.19 |  |

Continued, in another order:

| pIC50 (SK-HEP1 [1]) | Compound | pIC50 [2] | further results |
| --- | --- | --- | --- |
| 4.19 | COC(=O)c1cc2c(c(OC)c1-c1ccc(N(C)C(=O)[C@H](C)N)cc1)OCO2 | 4.13 |  |
| < 4.00 | CNCC(=O)N(C)c1ccc(-c2c(C(=O)OC)cc3c(c2OC)OCO3)cc1 | < 4.00 |  |
| 4.40 | COC(=O)c1cc2c(c(OC)c1-c1ccc(N(C)C(=O)CNC(=O)OC(C)(C)C)cc1)OCO2 | 4.20 |  |
| 4.52 | COC(=O)c1cc2c(c(OC)c1-c1ccc(N(C)C)cc1)OCO2 | 4.16 |  |
| 4.05 | COC(=O)c1cc2c(c(OC)c1-c1ccc(N(C)C(=O)CN(C)C(=O)OC(C)(C)C)cc1)OCO2 | < 4.00 |  |
| 4.61 | CNc1ccc(-c2c(C(=O)OC)cc3c(c2OC)OCO3)cc1 | 4.17 | pIC50 (HeLa [3]): 4.81; Activity (SK-HEP1 [16]): Active; inhibition (SK-HEP1 [17]): Active |
| 4.39 | COC(=O)c1cc2c(c(OC)c1-c1ccc(N(C)C(=O)[C@H](C)NC(=O)OC(C)(C)C)cc1)OCO2 | 4.23 |  |
| < 4.00 | COC(=O)c1cc2c(c(OC)c1-c1ccc(N(C)C(=O)CN)cc1)OCO2 | < 4.00 |  |
| 4.33 | COC(=O)c1cc2c(c(OC)c1-c1ccc(N(C)S(C)(=O)=O)cc1)OCO2 | 4.12 |  |
| 4.71 | COC(=O)c1cc2c(c(OC)c1-c1ccc(N(C)C(=O)c3ccccc3)cc1)OCO2 | 4.32 | pIC50 (HeLa [3]): 4.89; Activity (SK-HEP1 [19]): Active; Activity (MHCC97 [20]): Active; Activity (HepG2): Active; Activity (Huh-7): Active; Activity (HeLa [21]): Active |
